Experimental data reported in US20060269924A1, “Modulation of telomere-initiated cell signaling” (TRUSTEES OF BOSTON UNIVERSITY, priority 2003, published 2006).
{P} = phosphate

System: cdk4^R24C R2F fibroblasts
Assay: SA-β-Gal staining, cdk4^R24C R2F fibroblasts
Assay type: cell-based, human
Conditions: 40 μM, 1 week
Protocol: FIG. 12a: Immunoblot analysis of p53DD and cdk4^R24C expression. Cells were collected for protein analysis by western blot using 30 μg total protein and probed for total p53 and cdk4. Lanes 1, 2, 3 and 4 contain protein samples from R2F, R2F (p53DD), R2F (cdk4^R24C) and R2F (p53DD/cdk4^R24C) fibroblasts, respective. β-actin was used as a loading control. FIG. 12b: Contribution of p53 and pRb pathways to T-oligo-induced SA-β-Gal activity. R2F fibroblasts and derived transductants were treated with diluent or 40 μM T-oligo for one week and then assayed for SA-β-Gal activity. FIG. 12c: Quantitative analysis of SA-β-Gal positive cells. Cells expressing SA-β-Gal activity were counted and presented as percentage of total cells in the cultures. Averages and standard deviations were calculated from 3 representative fields from each of 3 independent experiments.
R2F newborn dermal fibroblasts and derived p53DD, […] and p53DD/cdk4^R24C transductants (a generous gift from Dr. James G. Rheinwald of Harvard Medical School) lack a functional p53 pathway, pRb pathway, and both pathways respectively.
Cells were treated once with diluent alone, 40 μM T-oligo or 40 μM complementary oligo for 1 week without re-feeding. […]
Cells were treated with either diluent or 40 μM T-oligo for 1 week and then assessed for SA-β-Gal activity. […]

Q: With “pGTTAGGGTTAG (DNA, 5' {P}, backbone not given here; listed as Homo sapiens) [Oligonucleotide 11mer-1]” as the substance, how does the SA-β-Gal positive cells read?
A: Its SA-β-Gal positive cells is 60±5%.
